Measured values: PubChem BioAssay (NCI)
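GI50: concentration for 50% inhibition of growth. Definition used: TGI = concentration required for complete inhibition of growth.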

Experiments:
Experiment in all cases: DTP human tumour cell line panel, 384-well format
[1] = tested on: CAKI-1 renal
[2] = tested on: NCI-H226 lung
[3] = tested on: M14 melanoma
[4] = tested on: T-47D breast
[5] = tested on: NCI-H23 lung
[6] = tested on: OVCAR-4 ovarian
[7] = tested on: NCI-H322M lung
[8] = tested on: RPMI-8226 leukemia
[9] = tested on: KM12 colon
[10] = tested on: SF-295 CNS
[11] = tested on: BT-549 breast
[12] = tested on: A549 NSCLC
[13] = tested on: OVCAR-8 ovarian
[14] = tested on: MDA-MB-468 breast
[15] = tested on: SF-268 CNS
[16] = tested on: HCC-2998 colon
[17] = tested on: SK-OV-3 ovarian
[18] = tested on: SK-MEL-5 melanoma
[19] = tested on: SK-MEL-28 melanoma
[20] = tested on: NCI/ADR-RES ovarian
[21] = tested on: MCF7 breast
[22] = tested on: SW-620 colon
[23] = tested on: K-562 leukemia
[24] = tested on: NCI-H460 NSCLC
[25] = tested on: SR leukemia
[26] = tested on: CCRF-CEM leukemia
[27] = tested on: MOLT-4 leukemia
[28] = tested on: ACHN renal
[29] = tested on: HCT-15 colon
[30] = tested on: HT29 colon
[31] = tested on: MDA-MB-435 melanoma
[32] = tested on: SF-539 CNS
[33] = tested on: OVCAR-5 ovarian
[34] = tested on: SNB-75 CNS
[35] = tested on: 786-0 renal
[36] = tested on: SK-MEL-2 melanoma
[37] = tested on: DU-145 prostate
[38] = tested on: SN12C renal
[39] = tested on: HL-60(TB) leukemia
[40] = tested on: HCT-116 colon
[41] = tested on: A498 renal
[42] = tested on: MALME-3M melanoma
[43] = tested on: NCI-H522 lung
[44] = tested on: TK-10 renal
[45] = tested on: LOX IMVI melanoma
[46] = tested on: HOP-92 NSCLC
[47] = tested on: UACC-62 melanoma
[48] = tested on: IGROV1 ovarian
[49] = tested on: HOP-62 NSCLC
[50] = tested on: OVCAR-3 ovarian
[51] = tested on: COLO 205 colon
[52] = tested on: UO-31 renal
[53] = tested on: EKVX NSCLC
[54] = tested on: PC-3 prostate
[55] = tested on: MDA-MB-231 breast
[56] = tested on: UACC-257 melanoma
[57] = tested on: U251 glioblastoma
[58] = tested on: HS 578T breast
[59] = tested on: SNB-19 CNS
[60] = tested on: RXF 393 renal

In the case of `O=C(c1ccc(Oc2ccccc2)cc1Cl)c1c[nH]c2ncnc(N[C@@H]3CC[C@@H](CO)OC3)c12`, the GI50 [1] is reported as 261 nM, the TGI [1] is reported as 1440 nM and the GI50 [2] is reported as 135 nM. For the same molecule, the TGI [2] was 937 nM, the TGI [3] was 48.9 nM and the GI50 [4] was 520 nM. It also gave a TGI [4] of 3.21 µM, a GI50 [5] of 67 nM and a TGI [5] of 385 nM. It also gave a GI50 [6] of 1130 nM, a TGI [6] of 7.2 µM and a GI50 [7] of 249 nM. For the same molecule, the TGI [7] was 1780 nM, the GI50 [8] was 696 nM and the TGI [8] was 2190 nM. For the same molecule, the GI50 [9] was 19.4 nM, the TGI [9] was 171 nM and the GI50 [10] was 1000 nM. For the same molecule, the TGI [10] was 3.33 µM, the GI50 [11] was 313 nM and the TGI [11] was 1460 nM. For the same molecule, the GI50 [12] was 244 nM, the TGI [12] was 1540 nM and the GI50 [13] was 390 nM. It also gave a TGI [13] of 2080 nM, a GI50 [14] of 303 nM and a TGI [14] of 1870 nM. For the same molecule, the GI50 [15] was 482 nM, the TGI [15] was 4.89 µM and the GI50 [16] was 29.9 nM. For the same molecule, the TGI [16] was 204 nM, the GI50 [17] was 201 nM and the TGI [17] was 965 nM. For the same molecule, the GI50 [18] was 33.7 nM, the TGI [18] was 1470 nM and the GI50 [19] was 13.3 nM. The TGI [19] was 55.8 nM, the GI50 [20] was 1130 nM and the TGI [20] was 2480 nM. It also gave a GI50 [21] of 255 nM, a TGI [21] of 1910 nM and a GI50 [22] of 151 nM. For the same molecule, the TGI [22] was 1270 nM, the GI50 [23] was 153 nM and the TGI [23] was 399 nM. It also gave a GI50 [24] of 771 nM, a TGI [24] of 3.65 µM and a GI50 [25] of 186 nM. For the same molecule, the TGI [25] was 343 nM, the GI50 [26] was 1590 nM and the TGI [26] was 3.4 µM. The GI50 [27] was 296 nM, the TGI [27] was 1820 nM and the GI50 [28] was 121 nM. For the same molecule, the TGI [28] was 983 nM, the GI50 [29] was 510 nM and the TGI [29] was 3.34 µM. For the same molecule, the GI50 [30] was 33.4 nM, the TGI [30] was 1300 nM and the GI50 [31] was 17 nM. For the same molecule, the TGI [31] was 170 nM, the GI50 [32] was 338 nM and the TGI [32] was 1600 nM. The GI50 [33] was 153 nM, the TGI [33] was 938 nM and the GI50 [34] was 801 nM. It also gave a TGI [34] of 2280 nM, a GI50 [35] of 1110 nM and a TGI [35] of 4.61 µM. It also gave a GI50 [36] of 127 nM, a TGI [36] of 289 nM and a GI50 [37] of 354 nM. For the same molecule, the TGI [37] was 1480 nM, the GI50 [38] was 193 nM and the TGI [38] was 1380 nM. It also gave a GI50 [39] of 36.8 nM, a TGI [39] of 196 nM and a GI50 [40] of 248 nM. It also gave a TGI [40] of 1110 nM, a GI50 [41] of 519 nM and a TGI [41] of 2770 nM. For the same molecule, the TGI [42] was 24.7 nM, the GI50 [43] was 49.4 nM and the TGI [43] was 366 nM. The GI50 [44] was 185 nM, the TGI [44] was 543 nM and the GI50 [45] was 33.1 nM. For the same molecule, the TGI [45] was 161 nM, the GI50 [46] was 273 nM and the TGI [46] was 1190 nM. For the same molecule, the GI50 [47] was 10.7 nM, the TGI [47] was 54.7 nM and the GI50 [48] was 30.6 nM. The TGI [48] was 987 nM, the GI50 [49] was 638 nM and the TGI [49] was 2660 nM. It also gave a GI50 [50] of 130 nM, a TGI [50] of 3.18 µM and a GI50 [51] of 17.7 nM. The TGI [51] was 113 nM, the GI50 [52] was 305 nM and the TGI [52] was 1450 nM. It also gave a GI50 [53] of 113 nM, a TGI [53] of 1070 nM and a GI50 [54] of 2320 nM. The TGI [54] was 11.6 µM, the GI50 [55] was 46.3 nM and the TGI [55] was 207 nM. It also gave a GI50 [56] of 21.7 nM, a TGI [56] of 83.9 nM and a GI50 [57] of 462 nM. The TGI [57] was 2510 nM, the GI50 [58] was 700 nM and the TGI [58] was 2120 nM. The GI50 [59] was 372 nM, the TGI [59] was 3.95 µM and the GI50 [60] was 210 nM. The TGI [60] was 920 nM.
